Experimental data reported in the NIST ThermoML archive (doi:10.1021/je900387e).

Test: xn = mol fraction of the nth substance listed
Conditions: Liquid, Pycnometric method

CCCCCl [1-chlorobutane] + O=C=O
Conditions	mass density [kg/m3]
327.6 K, 14940 kPa, x1 = 0.0981	822
327.6 K, 15140 kPa, x1 = 0.0981	825
332.4 K, 9070 kPa, x1 = 0.1488	732
332.4 K, 9260 kPa, x1 = 0.1488	737
332.4 K, 9420 kPa, x1 = 0.1488	740
332.4 K, 9430 kPa, x1 = 0.0981	649
332.4 K, 9510 kPa, x1 = 0.0981	654
332.4 K, 9560 kPa, x1 = 0.0981	657
332.4 K, 9590 kPa, x1 = 0.1488	744
332.4 K, 9660 kPa, x1 = 0.0981	663
332.4 K, 9750 kPa, x1 = 0.0483	421
332.4 K, 9760 kPa, x1 = 0.0981	669
332.4 K, 9760 kPa, x1 = 0.1488	748
332.4 K, 9800 kPa, x1 = 0.0483	426
332.4 K, 9860 kPa, x1 = 0.0483	433
332.4 K, 9870 kPa, x1 = 0.0981	675
332.4 K, 9910 kPa, x1 = 0.0483	441
332.4 K, 9940 kPa, x1 = 0.1488	751
332.4 K, 9970 kPa, x1 = 0.0483	449
332.4 K, 10000 kPa, x1 = 0.0981	682
332.4 K, 10050 kPa, x1 = 0.0483	458
332.4 K, 10130 kPa, x1 = 0.0981	687
332.4 K, 10130 kPa, x1 = 0.1488	755
332.4 K, 10150 kPa, x1 = 0.0483	469
332.4 K, 10200 kPa, x1 = 0.0483	478
332.4 K, 10280 kPa, x1 = 0.0483	487
332.4 K, 10290 kPa, x1 = 0.0981	694
332.4 K, 10340 kPa, x1 = 0.1488	758
332.4 K, 10390 kPa, x1 = 0.0483	497
332.4 K, 10470 kPa, x1 = 0.0981	700
332.4 K, 10490 kPa, x1 = 0.0483	507
332.4 K, 10570 kPa, x1 = 0.1488	762
332.4 K, 10590 kPa, x1 = 0.0483	518
332.4 K, 10650 kPa, x1 = 0.0981	707
332.4 K, 10700 kPa, x1 = 0.0483	529
332.4 K, 10800 kPa, x1 = 0.1488	766
332.4 K, 10830 kPa, x1 = 0.0483	541
332.4 K, 10850 kPa, x1 = 0.0981	713
332.4 K, 10970 kPa, x1 = 0.0483	554
332.4 K, 11030 kPa, x1 = 0.1488	770
332.4 K, 11080 kPa, x1 = 0.0981	720
332.4 K, 11140 kPa, x1 = 0.0483	569
332.4 K, 11280 kPa, x1 = 0.1488	774
332.4 K, 11330 kPa, x1 = 0.0981	727
332.4 K, 11350 kPa, x1 = 0.0483	584
332.4 K, 11560 kPa, x1 = 0.0483	598
332.4 K, 11570 kPa, x1 = 0.1488	778
332.4 K, 11590 kPa, x1 = 0.0981	734
332.4 K, 11830 kPa, x1 = 0.0483	613
332.4 K, 11840 kPa, x1 = 0.1488	782
332.4 K, 11980 kPa, x1 = 0.0981	743
332.4 K, 12120 kPa, x1 = 0.0483	629
332.4 K, 12300 kPa, x1 = 0.0483	637
332.4 K, 12330 kPa, x1 = 0.1488	788
332.4 K, 12430 kPa, x1 = 0.0981	753
332.4 K, 12530 kPa, x1 = 0.0483	648
332.4 K, 12610 kPa, x1 = 0.0483	652
332.4 K, 12820 kPa, x1 = 0.1488	794
332.4 K, 12960 kPa, x1 = 0.0981	763
332.4 K, 13360 kPa, x1 = 0.1488	800
332.4 K, 13540 kPa, x1 = 0.0981	774
332.4 K, 13940 kPa, x1 = 0.1488	806
332.4 K, 14190 kPa, x1 = 0.0981	785
332.4 K, 14570 kPa, x1 = 0.1488	813
332.4 K, 14840 kPa, x1 = 0.1488	816
332.4 K, 14900 kPa, x1 = 0.0981	795
332.4 K, 15110 kPa, x1 = 0.0981	798
333.3 K, 9630 kPa, x1 = 0.0744	545
333.3 K, 9660 kPa, x1 = 0.0744	551
333.3 K, 9690 kPa, x1 = 0.0744	556
333.3 K, 9740 kPa, x1 = 0.0744	563
333.3 K, 9810 kPa, x1 = 0.0744	571
333.3 K, 9900 kPa, x1 = 0.0744	578
333.3 K, 9980 kPa, x1 = 0.0744	586
333.3 K, 10100 kPa, x1 = 0.0744	597
333.3 K, 10250 kPa, x1 = 0.0744	608
333.3 K, 10410 kPa, x1 = 0.0744	620
333.3 K, 10600 kPa, x1 = 0.0744	632
333.3 K, 10840 kPa, x1 = 0.0744	645
333.3 K, 11110 kPa, x1 = 0.0744	658
333.3 K, 11420 kPa, x1 = 0.0744	672
333.3 K, 11800 kPa, x1 = 0.0744	686
333.3 K, 12260 kPa, x1 = 0.0744	701
333.3 K, 12810 kPa, x1 = 0.0744	717
333.3 K, 13470 kPa, x1 = 0.0744	733
333.3 K, 14290 kPa, x1 = 0.0744	750
333.3 K, 14750 kPa, x1 = 0.0744	759
333.3 K, 15240 kPa, x1 = 0.0744	768
337.4 K, 9620 kPa, x1 = 0.1488	705
337.4 K, 9770 kPa, x1 = 0.1488	709
337.4 K, 9890 kPa, x1 = 0.0981	605
337.4 K, 9930 kPa, x1 = 0.0744	509
337.4 K, 9950 kPa, x1 = 0.1488	714
337.4 K, 9960 kPa, x1 = 0.0483	378
337.4 K, 9960 kPa, x1 = 0.0744	513
337.4 K, 9980 kPa, x1 = 0.0981	612
337.4 K, 10010 kPa, x1 = 0.0744	520
337.4 K, 10040 kPa, x1 = 0.0483	384
337.4 K, 10070 kPa, x1 = 0.0981	619
337.4 K, 10080 kPa, x1 = 0.0744	527
337.4 K, 10090 kPa, x1 = 0.0483	390
337.4 K, 10150 kPa, x1 = 0.0981	625
337.4 K, 10150 kPa, x1 = 0.1488	719
337.4 K, 10160 kPa, x1 = 0.0483	396
337.4 K, 10180 kPa, x1 = 0.0744	536
337.4 K, 10230 kPa, x1 = 0.0483	402
337.4 K, 10250 kPa, x1 = 0.0981	632
337.4 K, 10280 kPa, x1 = 0.0744	547
337.4 K, 10290 kPa, x1 = 0.0483	409
337.4 K, 10360 kPa, x1 = 0.0483	415
337.4 K, 10360 kPa, x1 = 0.0981	639
337.4 K, 10360 kPa, x1 = 0.1488	724
337.4 K, 10420 kPa, x1 = 0.0483	422
337.4 K, 10420 kPa, x1 = 0.0744	560
337.4 K, 10490 kPa, x1 = 0.0483	429
337.4 K, 10500 kPa, x1 = 0.0981	647
337.4 K, 10550 kPa, x1 = 0.0744	571
337.4 K, 10570 kPa, x1 = 0.0483	436
337.4 K, 10580 kPa, x1 = 0.1488	729
337.4 K, 10630 kPa, x1 = 0.0981	654
337.4 K, 10650 kPa, x1 = 0.0483	444
337.4 K, 10700 kPa, x1 = 0.0744	583
337.4 K, 10730 kPa, x1 = 0.0483	452
337.4 K, 10790 kPa, x1 = 0.0981	662
337.4 K, 10820 kPa, x1 = 0.0483	459
337.4 K, 10840 kPa, x1 = 0.1488	735
337.4 K, 10870 kPa, x1 = 0.0744	595
337.4 K, 10900 kPa, x1 = 0.0483	468
337.4 K, 10960 kPa, x1 = 0.0981	670
337.4 K, 10990 kPa, x1 = 0.0483	477
337.4 K, 11060 kPa, x1 = 0.0744	607
337.4 K, 11090 kPa, x1 = 0.0483	485
337.4 K, 11090 kPa, x1 = 0.1488	740
337.4 K, 11170 kPa, x1 = 0.0981	678
337.4 K, 11190 kPa, x1 = 0.0483	495
337.4 K, 11270 kPa, x1 = 0.0483	501
337.4 K, 11270 kPa, x1 = 0.0744	620
337.4 K, 11340 kPa, x1 = 0.0483	508
337.4 K, 11380 kPa, x1 = 0.0981	686
337.4 K, 11380 kPa, x1 = 0.1488	746
337.4 K, 11440 kPa, x1 = 0.0483	516
337.4 K, 11510 kPa, x1 = 0.0483	521
337.4 K, 11520 kPa, x1 = 0.0744	634
337.4 K, 11640 kPa, x1 = 0.0981	694
337.4 K, 11680 kPa, x1 = 0.1488	751
337.4 K, 11830 kPa, x1 = 0.0744	648
337.4 K, 11930 kPa, x1 = 0.0981	703
337.4 K, 12030 kPa, x1 = 0.1488	757
337.4 K, 12200 kPa, x1 = 0.0744	663
337.4 K, 12240 kPa, x1 = 0.0981	711
337.4 K, 12380 kPa, x1 = 0.1488	762
337.4 K, 12580 kPa, x1 = 0.0981	721
337.4 K, 12630 kPa, x1 = 0.0744	679
337.4 K, 12750 kPa, x1 = 0.1488	768
337.4 K, 12950 kPa, x1 = 0.0981	729
337.4 K, 13160 kPa, x1 = 0.0744	695
337.4 K, 13180 kPa, x1 = 0.1488	774
337.4 K, 13380 kPa, x1 = 0.0981	739
337.4 K, 13450 kPa, x1 = 0.1488	778
337.4 K, 13780 kPa, x1 = 0.1488	781
337.4 K, 13800 kPa, x1 = 0.0744	713
337.4 K, 14110 kPa, x1 = 0.0981	753
337.4 K, 14120 kPa, x1 = 0.1488	786
337.4 K, 14480 kPa, x1 = 0.1488	790
337.4 K, 14580 kPa, x1 = 0.0744	731
337.4 K, 14830 kPa, x1 = 0.1488	794
337.4 K, 14970 kPa, x1 = 0.0981	768
337.4 K, 15140 kPa, x1 = 0.0744	742
337.4 K, 15300 kPa, x1 = 0.0981	774
